The target of the test is Coagulation factor XI (Homo sapiens, UniProt P03951). Nature of the test: Inhibition of human coagulation factor 11 assessed as inhibition of factor 12a mediated activation using z-GPR-AFC measured after 60 mins by fluorescence assay.
Sequence of Coagulation factor XI (P03951 19-387 limits assumed): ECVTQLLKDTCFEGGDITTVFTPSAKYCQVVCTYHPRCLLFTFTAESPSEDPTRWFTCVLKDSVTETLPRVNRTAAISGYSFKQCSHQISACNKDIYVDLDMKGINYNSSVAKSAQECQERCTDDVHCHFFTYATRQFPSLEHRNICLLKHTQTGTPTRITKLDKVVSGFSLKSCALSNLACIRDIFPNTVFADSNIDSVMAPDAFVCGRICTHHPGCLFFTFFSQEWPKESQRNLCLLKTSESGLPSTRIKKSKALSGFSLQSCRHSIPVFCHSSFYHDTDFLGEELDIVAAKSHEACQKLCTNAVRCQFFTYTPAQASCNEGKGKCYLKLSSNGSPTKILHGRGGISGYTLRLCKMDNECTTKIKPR
Sequence of Coagulation factor XI (P03951 388-625 limits assumed): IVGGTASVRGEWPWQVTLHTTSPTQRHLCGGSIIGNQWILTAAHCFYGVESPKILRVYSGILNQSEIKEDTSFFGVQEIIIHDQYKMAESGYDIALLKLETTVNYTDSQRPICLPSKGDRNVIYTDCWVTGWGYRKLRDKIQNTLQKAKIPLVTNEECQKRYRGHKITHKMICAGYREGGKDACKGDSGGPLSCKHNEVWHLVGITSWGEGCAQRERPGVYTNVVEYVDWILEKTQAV

A word on the EC50: it is the concentration that produces a half-maximal response. With `Cc1cnn(C2CCN(C(=O)c3cc(C(=O)N4CCCCC4)c4cc(OCc5ncc(C(F)(F)F)cc5Cl)ncc4c3)CC2)c1`, the EC50 was 3.8 nM.

For the origin of these results see ChEMBL document CHEMBL5030570, “Factor XI Activation Inhibitors for Treating Thrombosis, Embolisms, Hypercoagulability, and Fibrotic Changes” (ACS Med Chem Lett, 2022).
